Data: patent US10150729B2, “Tranilast compositions and cocrystals” (NUFORMIX LIMITED, priority 2012, dated 2018)
Like-named read-outs stand apart in the source and are kept apart here.

What was measured:
[1] = Solution photostability study (UV irradiation, HPLC); conditions: dissolved in DMSO/MeOH/water; UV light; 24 hrs
Experimental: (§1) This study explored the photostability of the 1:1 tranilast nicotinamide cocrystal, the 1:1 tranilast saccharin cocrystal, the 1:1 tranilast gentisic acid cocrystal, the 1:1 salicylic acid cocrystal, the 1:1 tranilast urea cocrystal, the 1:1 tranilast 4-aminobenzoic acid cocrystal and the 1:1 tranilast 2,4-dihydroxybenzoic acid cocrystal once dissolved in solution and to compare these with the solution photostability of pure tranilast. A 1 mg sample of crystalline tranilast and the seven cocrystal forms were each weighed into a clear glass vial. Each sample was dissolved in a mixture of DMSO (200 μl), MeOH (600 μl) and water (600 μl). The vials were placed into a Vindon Scientific Photostability cabinet and irradiated with UV light (average Klux=18.2 (18.2 Lux/hour), average UV values=2.55 watts/minute, temperature=31.0-32.0° C.). The percentage of tranilast remaining in each sample, that had not undergone degradation into the cis-isomer, dimer or any other degradation product, was determined after 24 hours using HPLC.

[2] = Solid-state photostability study (UV irradiation, HPLC); conditions: UV light; for photostability in the solid-state: compared to pure crystalline tranilast
Experimental: A study was, therefore, carried out to determine the solid-state photostability of the 1:1 tranilast nicotinamide cocrystal, the 1:1 tranilast saccharin cocrystal, the 1:1 tranilast gentisic acid cocrystal, the 1:1 salicylic acid cocrystal, the 1:1 tranilast urea cocrystal, the 1:1 tranilast 4-aminobenzoic acid cocrystal and the 1:1 tranilast 2,4-dihydroxybenzoic acid cocrystal and to compare this with the solid state photostability of pure crystalline tranilast. A 1-2 mg sample of crystalline tranilast and the seven cocrystal forms were each weighed and spread over the bottom surface of a clear glass vial. The vials were placed into a Vindon Scientific Photostability cabinet and irradiated with UV light (average Klux=18.2 (18.2 Lux/hour), average UV values=2.55 watts/minute, temperature=31.0-32.0° C.). The percentage of tranilast remaining in each sample, that had not undergone degradation into the cis-isomer, dimer or any other degradation product, was determined at 3, 24 and 48 hours using HPLC.

[3] = buffer, 24 h
Experimental: as §1

[4] = Dissolution study in purified water containing 2% SDS; format: physicochemical
Experimental: For poorly soluble drugs, such as tranilast, the rate of dissolution of the drug form used can have an impact on the overall absorption and thus bioavailability of the drug, especially for example, in the case of oral solid dosage or inhalation delivery methods. […] The dissolution experiment was carried out for tranilast and each of the cocrystal forms at a concentration equivalent to 0.4 mg tranilast/ml in purified water containing 2% SDS. This study compared the dissolution rates of the cocrystals versus pure crystalline tranilast, because of the extremely low solubility of crystalline tranilast in aqueous media, the surfactant sodium dodecyl sulfate (SDS) was added to the dissolution media to allow easier analytical detection. Samples were collected and analysed at 1, 5, 10 and 30 minute time points. The samples were analysed by HPLC using the method described in Table 10. FIG. 32 illustrates the dissolution profiles from a single dataset for each of the tranilast cocrystals alongside crystalline tranilast over the 30 minute time period in the aqueous 2% SDS solution. The dissolution data is corrected within error limits of the analytical method described (estimated at ±10%). […] Most of the cocrystals reach almost their maximum dissolution within the first minute.

[5] = Physical stability study of the cocrystal under accelerated conditions (40° C./75% RH), examined by XRPD; format: physicochemical
Experimental: X-Ray Powder Diffraction patterns at the required time points were collected on a PANalytical diffractometer using Cu Kα radiation (45 kV, 40 mA), θ-θ goniometer, focusing mirror, divergence slit (½″), soller slits at both incident and divergent beam (4 mm) and a PIXcel detector. The software used for data collection was X'Pert Data Collector, version 2.2f and the data was presented using X'Pert Data Viewer, version 1.2d. Instrument verification was performed using a silicon and benzoic acid standard, performed with the same batch program as listed below for sample analysis. Samples were run under ambient conditions and were analysed by transmission foil XRPD, using the powder as received. Approximately 2-5 mg of the sample was mounted on a 96 position sample plate supported on a polyimide (Kapton, 12.7 μm thickness) film. Plate height (Z) was set to 9 mm. Data was collected in the range 3-40° 2θ with a continuous scan (speed of 0.2° 2θ/s).
A stability study was carried out to examine the physical stability of the 1:1 tranilast nicotinamide cocrystal with respect to dissociation into its starting components over time under accelerated conditions. Approximately 1-2 mg of the 1:1 tranilast nicotinamide cocrystal was placed in seven clear glass vials. The glass vials were loosely sealed with plastic screw caps so as to provide a barrier to solid transfer but to still allow moisture equilibration with the outer environment. The vial head space above the sample was estimated to be >95% of the total vial volume. All seven samples were then placed on a tray and stored within a stability cabinet set at 40° C./75% RH. At every time point examined the XRPD pattern obtained was characteristic of the 1:1 tranilast nicotinamide cocrystal with no evidence of either of the starting materials, or any new peaks to indicate conversion to a different crystalline form. FIG. 7 illustrates the XRPD patterns obtained at the time points 0, three months and six months. FIG. 7 is an overlay of the XRPD patterns of the 1:1 tranilast nicotinamide cocrystal at those time points during a 6 month accelerated stability study at 40° C./75% RH.

## COc1ccc(/C=C/C(=O)Nc2ccccc2C(=O)O)cc1OC.Nc1ccc(C(=O)O)cc1
[1]
  percentage of tranilast remaining: 76.2%
[2]; 3 hrs
  percentage of tranilast remaining: 99.8%
[2]; 24 hrs
  percentage of tranilast remaining: 98.2%
[2]; 48 hrs
  percentage of tranilast remaining: 99.7%
[2]
  photostability in the solid-state: comparable photostability

## COc1ccc(/C=C/C(=O)Nc2ccccc2C(=O)O)cc1OC.O=C(O)c1cc(O)ccc1O [1:1 Tranilast Gentisic Acid Cocrystal]
3 h
  percentage of tranilast remaining: 99.6%
24 h
  percentage of tranilast remaining: 99.8%
48 h
  percentage of tranilast remaining: 99.9%
[3]
  percentage of tranilast remaining: 76.3%

## COc1ccc(/C=C/C(=O)Nc2ccccc2C(=O)O)cc1OC.NC(=O)c1cccnc1 [1:1 Tranilast Nicotinamide Cocrystal]
[1]
  percentage of tranilast remaining: 80.2%
[2]; 3 hrs
  percentage of tranilast remaining: 99.3%
[2]; 24 hrs
  percentage of tranilast remaining: 99.9%
[2]; 48 hrs
  percentage of tranilast remaining: 99.9%
[2]
  photostability in the solid-state: comparable photostability
[4]; within 1 minute
  dissolution reached: almost complete dissolution
[5]; 1 month
  XRPD Characterization: cocrystal
[5]; 1 week
  XRPD Characterization: cocrystal
[5]; 2 months
  XRPD Characterization: cocrystal
[5]; 2 week
  XRPD Characterization: cocrystal
[5]; 3 months
  XRPD Characterization: cocrystal
[5]; 3 week
  XRPD Characterization: cocrystal
[5]; 6 months
  XRPD Characterization: cocrystal
[5]; six month period
  physical stability with respect to dissociation or conversion to another crystalline form: stable
[5]; time point 0
  XRPD Characterization: cocrystal

## COc1ccc(/C=C/C(=O)Nc2ccccc2C(=O)O)cc1OC.O=C1NS(=O)(=O)c2ccccc21 [1:1 Tranilast Saccharin Cocrystal]
[1]
  percentage of tranilast remaining: 71.0%
[2]; 3 hrs
  percentage of tranilast remaining: 99.8%
[2]; 24 hrs
  percentage of tranilast remaining: 99.6%
[2]; 48 hrs
  percentage of tranilast remaining: 99.1%
[2]
  photostability in the solid-state: comparable photostability

## COc1ccc(/C=C/C(=O)Nc2ccccc2C(=O)O)cc1OC.O=C(O)c1ccccc1O [1:1 Tranilast Salicyclic Acid Cocrystal]
[1]
  percentage of tranilast remaining: 77.5%
[2]; 3 hrs
  percentage of tranilast remaining: 99.8%
[2]; 24 hrs
  percentage of tranilast remaining: 99.6%
[2]; 48 hrs
  percentage of tranilast remaining: 98.7%
[2]
  photostability in the solid-state: comparable photostability

## COc1ccc(/C=C/C(=O)Nc2ccccc2C(=O)O)cc1OC.NC(N)=O [1:1 Tranilast Urea Cocrystal]
[1]
  percentage of tranilast remaining: 76.4%
[2]; 3 hrs
  percentage of tranilast remaining: 99.8%
[2]; 24 hrs
  percentage of tranilast remaining: 99.6%
[2]; 48 hrs
  percentage of tranilast remaining: 99.9%
[2]
  photostability in the solid-state: comparable photostability

## COc1ccc(/C=C/C(=O)Nc2ccccc2C(=O)O)cc1OC [Crystalline Tranilast, 2-[[3-(3,4-dimethoxyphenyl)-1-oxo-2-propenyl]amino] benzoic acid, reference compound]
[1]
  percentage of tranilast remaining: 66.2%
[2]; 3 hrs
  percentage of tranilast remaining: 98.9%
[2]; 24 hrs
  percentage of tranilast remaining: 99.8%
[2]; 48 hrs
  percentage of tranilast remaining: 99.7%
[4]; after 1 minute, 0.4 mg tranilast/ml
  dissolved: about 5%
